# Test results reported in ChEMBL document CHEMBL1142035.
# Target: MAP kinase-activated protein kinase 2 (Homo sapiens, UniProt P49137)
# Sequence (P49137 whole entry): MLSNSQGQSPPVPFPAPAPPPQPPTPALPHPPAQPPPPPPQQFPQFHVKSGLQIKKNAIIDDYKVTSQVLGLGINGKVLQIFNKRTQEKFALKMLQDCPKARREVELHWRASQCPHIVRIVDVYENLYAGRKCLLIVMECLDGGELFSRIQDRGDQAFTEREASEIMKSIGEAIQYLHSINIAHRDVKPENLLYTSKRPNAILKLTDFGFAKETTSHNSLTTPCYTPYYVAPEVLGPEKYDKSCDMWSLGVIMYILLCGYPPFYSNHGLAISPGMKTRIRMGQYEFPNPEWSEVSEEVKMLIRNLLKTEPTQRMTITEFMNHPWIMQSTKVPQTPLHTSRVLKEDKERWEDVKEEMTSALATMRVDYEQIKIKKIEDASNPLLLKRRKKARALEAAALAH
# Description: Concentration of 50% inhibition by compound towards mitogen activated protein kinase -activated protein kinase 2
row,Compound,IC50 [µM]
1,N#Cc1c(N)nc2c(c1N)Cc1ccccc1S2(=O)=O,> 200
2,N#Cc1c(N)nc2c(c1N)Cc1ccccc1S2,> 200
3,COc1ccc2c(c1)Oc1cc(N)c(C#N)c(N)c1C2c1ccccc1 (stereo not given),> 200

# Next, values leading:
row,IC50 [µM],Compound
1,> 200,CCNc1cc2c(c(NCC)c1C#N)Cc1cc(O)c(O)cc1O2
2,> 200,N#Cc1c(N)cc2c(c1N)C(c1ccccc1)c1ccc(O)cc1O2 (stereo not given)
